Legend:
[1] = tested on: expert panelists; test: Test Example 3: equivalent carbon dioxide gas pressure by paired comparison; assay type: in vivo, human; details: base 1.3 kg/cm^2, polygodial 10 ppb (Example 7)
Description: The strength of carbonate stimulation of the carbonated water of Example 7 prepared by adding the Persicaria hydropiper extract of Production Example 1 to the carbonated water for evaluation of Preparation Example 1 (1.3 kg/cm^2) and the strength of carbonate stimulation of the carbonated waters described in Table 3 (1.4 kg/cm^2, 1.6 kg/cm^2, 1.9 kg/cm^2) separately prepared as a control were compared by 18 to 20 expert panelists. The number of panelists who judged that the carbonated water of Example 7 had strong carbonation and the selectivity of the carbonated water of Example 7 are shown in Table 3.
Furthermore, the relation between the concentration of carbon dioxide gas in the control product and the selectivity of the carbonated water of Example 7 was plotted (see FIG. 1).
Thus, it is considered that addition of polygodial has the same effect as increasing the pressure of carbon dioxide gas by 0.3 kg/cm^2.

[2] = tested on: expert panelists; test: Test Example 2: sensory comparison of polygodial with known carbonation sensation enhancing agents; assay type: in vivo, human
Experimental: Sensory evaluation of the samples of Example 4 and Comparative Examples 3 to 11 was performed by 10 expert panelists based on the following Evaluation criteria 1 to 3 using the carbonated water for evaluation of Preparation Example 1 as a control.
[Evaluation Criteria 1] (Strength of Carbonate Stimulation)
(Mode of Generation of Carbonate Stimulation)
Mode of generation of carbonate stimulation was defined as follows and the timing when the highest effect was felt was selected. The timing that won a majority (6 panelists or more) was regarded as the mode of generation of carbonate stimulation of the substance. In the case of a tie (5 panelists for each), the result was referred to as middle.
Initial: stimulation felt immediately after the sample was put in one's mouth. The impact at the moment when one took the sample.
Last: stimulation felt after swallowing the sample. Aftertaste and feeling when going down. Delayed effect.
[Evaluation Criteria 3] (Characteristics of Flavor)
Majority opinions were obtained from panelists' free descriptions of characteristics of flavor they felt.

[3] = tested on: expert panelists; test: Test Example 1: sensory evaluation of carbonated water with polygodial; assay type: in vivo, human
Experimental: Carbonated water for evaluation was prepared by diluting commercially available carbonated water (pressure of carbon dioxide gas before opening 3.0 kg/cm^2) with water such that the pressure of carbon dioxide gas was 1.3 kg/cm^2.
Polygodial (manufactured by Wako Pure Chemical Industries, Ltd.) was added to the carbonated water for evaluation of Preparation Example 1 such that the concentration was as shown in Table 1 described later and this was referred to as Comparative Examples 1 and 2, and Examples 1 to 6.
20 ppm of the Persicaria hydropiper extract of Production Example 1 was added to the carbonated water for evaluation of Preparation Example 1 and this was referred to as Example 7.
0.05 ppm of Tasmannia lanceolata oil (manufactured by ESSENTIAL OILS OF TASMANIA PTY LTD, polygodial content 20%) was added to the carbonated water for evaluation of Preparation Example 1 and this was referred to as Example 8. […]
Sensory evaluation was performed by 10 expert panelists based on the following Evaluation criteria using a product to which polygodial was not added as a control. For the strength of an offensive taste and odor, the average of the score of the 10 panelists was calculated and determined as the result of evaluation. […]

[4] = Decomposition of polygodial on distillation; assay type: physicochemical; details: yield significantly reduced
Description: Thus, distillation needs to be performed under reduced pressure using a known vacuum pump such as oil rotary pump, a mechanical booster pump and a diffusion pump.

Q: Which “Increase of pressure of carbon dioxide gas having the same effect as addition” value [1] does the source give for `CC1(C)CCC[C@]2(C)[C@@H](C=O)C(C=O)=CC[C@@H]12` [polygodial, (1R,4aS,8aS)-5,5,8a-trimethyl-1,4,4a,6,7,8-hexahydronaphthalene-1,2-dicarboxaldehyde] here?
A: 0.3 kg/cm^2

Q: What about the “Timing of the effect of enhancing carbonation sensation” value [2] of the same compound?
A: immediate effect

Q: And the “Enhancement of carbonation sensation” value ([3]; polygodial 0.01 ppb)?
A: not enhanced

Q: And the “Enhancement of carbonation sensation and pungency” value ([3]; polygodial 400 ppb)?
A: pungency appeared with enhanced carbonation sensation

Q: And the “Evaporating temperature at which polygodial is decomposed” value [4]?
A: more than 150 °C

Q: Which “Timing of the effect of enhancing carbonation sensation” value [2] does the source give for `C/C=C/C=C\CC/C=C/C(=O)NCC(C)C` [spilanthol, (2E,6Z,8E)-N-Isobutyl-2,6,8-decatrienamide, reference compound] here?
A: relatively delayed

— patent publication US12102104B2, “Carbonation sensation enhancing agent for foods and beverages having carbonate stimulation” (Ogawa & Co., Ltd., priority 2018, dated 2024)
